The text below walks through data of patent publication US11339130B1 (Blade Therapeutics, Inc., priority 2016, dated 2022).

What all share (assay type): biochemical
For one assay, the target named is T1, Human Calpain 1/NS1 (Homo sapiens, UniProt P07384).
T1 sequence (P07384 1-714): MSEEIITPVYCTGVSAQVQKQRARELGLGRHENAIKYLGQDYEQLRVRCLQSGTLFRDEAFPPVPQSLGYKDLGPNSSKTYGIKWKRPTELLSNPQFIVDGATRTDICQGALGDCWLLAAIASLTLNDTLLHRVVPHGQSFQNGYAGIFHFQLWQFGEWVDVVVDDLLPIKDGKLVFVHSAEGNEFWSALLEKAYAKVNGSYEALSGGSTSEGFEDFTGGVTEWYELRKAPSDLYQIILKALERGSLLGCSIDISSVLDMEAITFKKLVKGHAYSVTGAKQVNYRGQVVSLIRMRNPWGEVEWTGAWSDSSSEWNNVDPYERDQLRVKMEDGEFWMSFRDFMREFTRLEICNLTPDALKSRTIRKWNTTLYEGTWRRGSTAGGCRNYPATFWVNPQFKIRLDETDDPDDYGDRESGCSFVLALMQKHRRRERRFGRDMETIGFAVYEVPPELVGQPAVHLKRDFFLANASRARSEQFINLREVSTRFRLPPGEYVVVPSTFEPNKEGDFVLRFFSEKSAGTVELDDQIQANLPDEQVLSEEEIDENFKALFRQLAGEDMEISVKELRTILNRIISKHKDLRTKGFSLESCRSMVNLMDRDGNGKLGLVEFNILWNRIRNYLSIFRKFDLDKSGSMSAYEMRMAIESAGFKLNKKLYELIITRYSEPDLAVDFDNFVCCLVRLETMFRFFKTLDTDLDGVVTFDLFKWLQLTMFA
T1 sequence (P04632 1-268 partner): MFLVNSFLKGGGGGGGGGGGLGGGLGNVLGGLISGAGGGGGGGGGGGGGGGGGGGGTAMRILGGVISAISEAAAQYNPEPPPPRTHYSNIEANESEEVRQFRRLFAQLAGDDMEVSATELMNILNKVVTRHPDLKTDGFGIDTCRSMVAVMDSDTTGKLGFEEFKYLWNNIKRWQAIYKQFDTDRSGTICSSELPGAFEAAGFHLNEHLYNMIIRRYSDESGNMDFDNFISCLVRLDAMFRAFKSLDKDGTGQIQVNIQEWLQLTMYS
The experiment in a line: Calpain inhibition continuous fluorescence (FRET) assay, Human Calpain 1/NS1. The settings on record: read-out: Human Calpain 1/NS1 IC50. The method, boiled down: (§1)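 Human calpains 1, 2 and 9 preincubated with inhibitor at 25 °C in 50 mM Tris pH 7.5, 100 mM NaCl, 1 mM DTT; reaction started with 5-FAM/QXL 520 FRET peptide plus CaCl2 for activation. Fluorescence (490/520 nm) followed 10 min; rates from 1-5 min slopes fitted to 4-parameter logistic for IC50.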

The next assay addresses T2, Human Calpain 2/NS1 (Homo sapiens, UniProt P17655).
T2 sequence (P17655 1-700): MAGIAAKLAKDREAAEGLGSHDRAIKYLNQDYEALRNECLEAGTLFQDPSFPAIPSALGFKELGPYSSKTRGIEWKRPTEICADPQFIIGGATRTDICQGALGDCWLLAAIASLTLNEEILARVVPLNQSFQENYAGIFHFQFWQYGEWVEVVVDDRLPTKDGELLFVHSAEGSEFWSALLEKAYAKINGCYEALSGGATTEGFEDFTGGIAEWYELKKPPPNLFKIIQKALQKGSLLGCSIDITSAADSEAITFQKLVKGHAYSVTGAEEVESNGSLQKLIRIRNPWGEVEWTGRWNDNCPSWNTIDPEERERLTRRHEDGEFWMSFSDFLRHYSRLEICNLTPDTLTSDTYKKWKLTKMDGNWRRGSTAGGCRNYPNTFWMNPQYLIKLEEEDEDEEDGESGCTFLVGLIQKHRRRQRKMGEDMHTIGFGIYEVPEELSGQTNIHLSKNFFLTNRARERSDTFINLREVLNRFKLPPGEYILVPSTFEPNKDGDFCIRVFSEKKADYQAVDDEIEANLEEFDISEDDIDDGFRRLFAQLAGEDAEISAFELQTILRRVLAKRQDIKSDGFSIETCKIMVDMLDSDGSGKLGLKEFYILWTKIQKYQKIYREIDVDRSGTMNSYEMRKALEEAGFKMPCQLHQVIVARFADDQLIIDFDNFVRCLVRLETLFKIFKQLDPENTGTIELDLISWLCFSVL
T2 sequence (P04632 1-268 partner): T1 sequence (P04632 1-268 partner)
Briefly: Calpain inhibition continuous fluorescence (FRET) assay, Human Calpain 2/NS1. The following applies: read-out: Human Calpain 2/NS1 IC50. In a few lines: as §1

For a further assay, the target named is T3, Human Calpain 9/NS1 (Homo sapiens, UniProt O14815).
T3 sequence (O14815 1-690): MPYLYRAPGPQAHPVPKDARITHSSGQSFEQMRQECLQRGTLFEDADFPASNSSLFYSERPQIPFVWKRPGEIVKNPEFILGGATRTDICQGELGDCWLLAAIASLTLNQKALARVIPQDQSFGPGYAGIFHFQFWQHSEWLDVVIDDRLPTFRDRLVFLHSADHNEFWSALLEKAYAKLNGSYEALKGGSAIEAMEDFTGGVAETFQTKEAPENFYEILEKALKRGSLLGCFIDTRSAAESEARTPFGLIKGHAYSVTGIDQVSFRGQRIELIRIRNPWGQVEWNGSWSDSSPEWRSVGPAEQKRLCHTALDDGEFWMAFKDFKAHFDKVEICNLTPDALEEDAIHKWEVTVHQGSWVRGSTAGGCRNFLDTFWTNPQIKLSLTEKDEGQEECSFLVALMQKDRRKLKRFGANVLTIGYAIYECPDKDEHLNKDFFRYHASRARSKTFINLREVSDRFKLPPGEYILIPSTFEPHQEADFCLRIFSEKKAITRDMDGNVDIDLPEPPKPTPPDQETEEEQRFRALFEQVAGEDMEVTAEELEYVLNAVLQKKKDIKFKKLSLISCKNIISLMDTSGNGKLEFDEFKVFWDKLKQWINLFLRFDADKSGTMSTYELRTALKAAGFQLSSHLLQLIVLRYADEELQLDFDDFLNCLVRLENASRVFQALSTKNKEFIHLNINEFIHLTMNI
T3 sequence (P04632 1-268 partner): T1 sequence (P04632 1-268 partner)
Briefly: Calpain inhibition continuous fluorescence (FRET) assay, Human Calpain 9/NS1. The following applies: read-out: Human Calpain 9/NS1 IC50. The method, boiled down:
as §1

Read-outs that look alike come from different tables or passages of the source.

For the molecule `Cc1noc(-c2ccccc2)c1C(=O)N[C@@H](Cc1ccccc1)C(=O)C(=O)NCc1cccc(OC(F)(F)F)c1` [Compound 150, (S)—N-(3,4-dioxo-1-phenyl-4-((3-(trifluoromethoxy)benzyl)amino)butan-2-yl)-3-methyl-5-phenylisoxazole-4-carboxamide], the IC50 on Human Calpain 1/NS1 (Column A), at Human Calpain 2/NS1 (Column B) and at Human Calpain 9/NS1 (Column C) was above 10 µM each time.
Consider `Cn1cc(C(=O)N[C@@H](Cc2ccccc2)C(=O)C(N)=O)c(Br)n1` [Compound 196, (S)—N-(4-amino-3,4-dioxo-1-phenylbutan-2-yl)-3-bromo-1-methyl-1H-pyrazole-4-carboxamide], for which the IC50 at Human Calpain 1/NS1 (Column A) is below 3 µM; at Human Calpain 2/NS1 (Column B) it was below 3 µM; on Human Calpain 9/NS1 (Column C), 3 to 10 µM.
`Cn1nc(Br)c(C(=O)NC(Cc2ccccc2)C(=O)C(N)=O)c1Cl` (stereo not drawn) [Compound 274, N-(4-amino-3,4-dioxo-1-phenylbutan-2-yl)-3-bromo-5-chloro-1-methyl-1H-pyrazole-4-carboxamide]: the IC50 at Human Calpain 1/NS1 (Column A), at Human Calpain 2/NS1 (Column B) and at Human Calpain 9/NS1 (Column C) was below 3 µM in each case.
For `Cn1ncc(C(=O)N[C@@H](Cc2ccccc2)C(=O)C(N)=O)c1-c1cccnc1` [Compound 189, (S)—N-(4-amino-3,4-dioxo-1-phenylbutan-2-yl)-1-methyl-5-(pyridin-3-yl)-1H-pyrazole-4-carboxamide], the IC50 at Human Calpain 1/NS1 (Column A), at Human Calpain 2/NS1 (Column B) and on Human Calpain 9/NS1 (Column C) was below 3 µM each time.
On to `O=C(NC1CC1)C(=O)[C@H](Cc1ccccc1)NC(=O)c1cncn1-c1ccc(-c2ccccc2)nn1` [Compound 201, (S)—N-(4-(cyclopropylamino)-3,4-dioxo-1-phenylbutan-2-yl)-1-(6-phenylpyridazin-3-yl)-1H-imidazole-5-carboxamide], for which the IC50 at Human Calpain 1/NS1 (Column A) was below 3 µM; on Human Calpain 2/NS1 (Column B), below 3 µM; on Human Calpain 9/NS1 (Column C), 3 to 10 µM.
For `NC(=O)C(=O)C(Cc1ccccc1)NC(=O)c1cn(C(F)F)nc1-c1ccc2ccncc2c1` (stereo not drawn) [Compound 630, N-(4-amino-3,4-dioxo-1-phenylbutan-2-yl)-1-(difluoromethyl)-3-(isoquinolin-7-yl)-1H-pyrazole-4-carboxamide], the IC50 on Human Calpain 1/NS1, on Human Calpain 2/NS1 and on Human Calpain 9/NS1 was below 3 µM each time.
As to `O=C[C@H](Cc1ccccc1)NC(=O)c1cncn1-c1ncc(-c2ccccc2)cn1` [Compound 75], the IC50 at Human Calpain 1/NS1 (Column A) is below 3 µM; at Human Calpain 2/NS1 (Column B), below 3 µM; on Human Calpain 9/NS1 (Column C), 3 to 10 µM.
`Cc1cc(C(=O)N[C@@H](Cc2ccccc2)C(=O)C(=O)NC2CC2)n(-c2cncnc2)n1` [Compound 127]: the IC50 on Human Calpain 1/NS1 (Column A), at Human Calpain 2/NS1 (Column B) and on Human Calpain 9/NS1 (Column C) was below 3 µM throughout.
As for `Cc1cc(-n2nc(C)cc2C(=O)N[C@@H](Cc2ccccc2)C(=O)C(N)=O)nc(C)n1` [Compound 235, (S)—N-(4-amino-3,4-dioxo-1-phenylbutan-2-yl)-1-(2,6-dimethylpyrimidin-4-yl)-3-methyl-1H-pyrazole-5-carboxamide], the IC50 at Human Calpain 1/NS1 (Column A), on Human Calpain 2/NS1 (Column B) and on Human Calpain 9/NS1 (Column C) was below 3 µM each time.
On to `Cc1cc(C(=O)N[C@@H](Cc2ccccc2)C(=O)C(N)=O)nn1-c1nc2ccccc2[nH]1` [Compound 264, (S)—N-(4-amino-3,4-dioxo-1-phenylbutan-2-yl)-1-(1H-benzo[d]imidazol-2-yl)-5-methyl-1H-pyrazole-3-carboxamide], for which the figures for the IC50 on Human Calpain 1/NS1 (Column A), at Human Calpain 2/NS1 (Column B) and at Human Calpain 9/NS1 (Column C) were 3 to 10 µM, 3 to 10 µM and above 10 µM, respectively.
Consider `Cc1cc(C(=O)NC(Cc2ccccc2)C(=O)C(=O)NC2CC2)n(-c2ccncc2)n1` (stereo not drawn) [compound 210], for which the IC50 on Human Calpain 1/NS1 (Column A), on Human Calpain 2/NS1 (Column B) and on Human Calpain 9/NS1 (Column C) was below 3 µM throughout.
With `Cc1cc(-n2nc(C(=O)N[C@@H](Cc3ccccc3)C(=O)C(N)=O)cc2C)nc(C)n1` [Compound 232, (S)—N-(4-amino-3,4-dioxo-1-phenylbutan-2-yl)-1-(2,6-dimethylpyrimidin-4-yl)-5-methyl-1H-pyrazole-3-carboxamide], the IC50 on Human Calpain 1/NS1 (Column A) was above 10 µM; at Human Calpain 2/NS1 (Column B), above 10 µM; at Human Calpain 9/NS1 (Column C), 3 to 10 µM.
In the case of `NC(=O)C(=O)[C@H](Cc1ccccc1)NC(=O)c1cncn1-c1nc2ccccc2[nH]1` [Compound 70, (S)—N-(4-amino-3,4-dioxo-1-phenylbutan-2-yl)-1-(1H-benzo[d]imidazol-2-yl)-1H-imidazole-5-carboxamide], the IC50 at Human Calpain 1/NS1 (Column A), at Human Calpain 2/NS1 (Column B) and on Human Calpain 9/NS1 (Column C) was below 3 µM throughout.
Take `Cc1cc(C(=O)N[C@@H](Cc2ccccc2)C(=O)C(N)=O)n(-c2ccc(-c3ccccc3)nn2)n1` [Compound 233, (S)—N-(4-amino-3,4-dioxo-1-phenylbutan-2-yl)-3-methyl-1-(6-phenylpyridazin-3-yl)-1H-pyrazole-5-carboxamide]: the IC50 at Human Calpain 1/NS1 (Column A) is below 3 µM; at Human Calpain 2/NS1 (Column B), below 3 µM; on Human Calpain 9/NS1 (Column C) it was 3 to 10 µM.
With `NC(=O)C(=O)[C@H](Cc1ccccc1)NC(=O)c1occc1-c1ccccc1` [Compound 104, (S)—N-(4-amino-3,4-dioxo-1-phenylbutan-2-yl)-3-phenylfuran-2-carboxamide], the IC50 on Human Calpain 1/NS1 (Column A), on Human Calpain 2/NS1 (Column B) and at Human Calpain 9/NS1 (Column C) was below 3 µM in each case.
Regarding `Cc1cn(-c2ccccc2)c(C(=O)N[C@@H](Cc2ccccc2)C(=O)C(N)=O)n1` [Compound 319, (S)—N-(4-amino-3,4-dioxo-1-phenylbutan-2-yl)-4-methyl-1-phenyl-1H-imidazole-2-carboxamide], the IC50 at Human Calpain 1/NS1, on Human Calpain 2/NS1 and at Human Calpain 9/NS1 was below 3 µM in each case.
`O=C[C@H](Cc1ccccc1)NC(=O)c1cncn1-c1nc2ccccc2s1` [Compound 29, (S)-1-(benzo[d]thiazol-2-yl)-N-(1-oxo-3-phenylpropan-2-yl)-1H-imidazole-5-carboxamide]: the IC50 at Human Calpain 1/NS1 (Column A), on Human Calpain 2/NS1 (Column B) and at Human Calpain 9/NS1 (Column C) was below 3 µM each time.
